Several values for one entry are separate records, joined by “and”; a condition that tells them apart may be missing. Identical values can stand only once. Bridge positions count the residues as written; N and C are the ends. Square brackets hold non-standard residues; d marks the D form. Peptide text beside a SMILES is read from it. Nle = CCCC[C@H](N)C(=O)O
Legend:
[1] = target: T1, Vasoactive intestinal polypeptide receptor 2 (Rattus norvegicus, UniProt P35000)
T1 sequence (P35000 whole entry): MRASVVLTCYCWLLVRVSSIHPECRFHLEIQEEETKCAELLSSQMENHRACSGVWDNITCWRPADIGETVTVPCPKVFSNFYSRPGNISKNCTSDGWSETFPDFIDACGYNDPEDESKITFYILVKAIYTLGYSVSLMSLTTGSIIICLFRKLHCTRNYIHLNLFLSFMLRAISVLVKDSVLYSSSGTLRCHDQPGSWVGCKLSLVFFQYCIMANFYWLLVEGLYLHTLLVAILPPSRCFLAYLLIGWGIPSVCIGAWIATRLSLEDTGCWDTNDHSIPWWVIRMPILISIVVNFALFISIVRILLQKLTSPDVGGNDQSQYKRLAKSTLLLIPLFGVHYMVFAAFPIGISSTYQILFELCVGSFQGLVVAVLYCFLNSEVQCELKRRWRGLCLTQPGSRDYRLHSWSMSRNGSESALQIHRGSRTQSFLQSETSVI

[2] = target: T2, Vasoactive intestinal polypeptide receptor 2 (Homo sapiens, UniProt P41587)
T2 sequence (P41587 whole entry): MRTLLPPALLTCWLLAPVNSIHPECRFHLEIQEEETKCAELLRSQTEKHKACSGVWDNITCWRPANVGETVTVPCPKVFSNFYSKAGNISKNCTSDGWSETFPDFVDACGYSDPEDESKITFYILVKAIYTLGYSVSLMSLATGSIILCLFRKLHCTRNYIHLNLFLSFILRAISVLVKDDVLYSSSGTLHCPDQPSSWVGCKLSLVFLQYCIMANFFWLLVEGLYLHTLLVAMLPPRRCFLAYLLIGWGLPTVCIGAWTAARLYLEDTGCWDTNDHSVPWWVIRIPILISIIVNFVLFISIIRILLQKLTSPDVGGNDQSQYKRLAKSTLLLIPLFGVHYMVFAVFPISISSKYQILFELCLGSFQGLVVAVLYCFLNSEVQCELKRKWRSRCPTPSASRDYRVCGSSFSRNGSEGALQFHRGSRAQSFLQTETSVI

[3] = target: T3, Vasoactive intestinal polypeptide receptor 1 (Homo sapiens, UniProt P32241)
T3 sequence (P32241 whole entry): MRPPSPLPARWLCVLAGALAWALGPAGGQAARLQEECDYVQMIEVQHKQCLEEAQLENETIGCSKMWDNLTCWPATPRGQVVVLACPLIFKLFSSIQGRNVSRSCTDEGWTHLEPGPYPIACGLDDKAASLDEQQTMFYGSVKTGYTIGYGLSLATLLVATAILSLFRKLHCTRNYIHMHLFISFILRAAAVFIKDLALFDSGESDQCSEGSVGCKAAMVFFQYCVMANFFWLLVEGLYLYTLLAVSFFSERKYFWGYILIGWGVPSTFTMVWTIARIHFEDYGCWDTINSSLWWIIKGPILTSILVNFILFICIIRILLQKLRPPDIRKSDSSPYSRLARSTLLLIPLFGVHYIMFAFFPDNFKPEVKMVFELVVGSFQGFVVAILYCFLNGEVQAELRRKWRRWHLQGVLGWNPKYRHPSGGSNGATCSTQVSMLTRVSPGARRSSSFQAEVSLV

“H-HSDAVFTDNYTALRKQMAVKKYLNSILN-NH2 [VIP Ala12]” was tested, and the Ki [1] was 25.1 nM and 251 nM and the Ki [2] was 331 nM and 676 nM and 288 nM.
In the case of “H-HSDAVFTDNYTRLRKQMAVKKALNSILN-NH2 [VIP Ala22]”, the Ki [1] is reported as 759 nM and 3000 nM and the Ki [2] is reported as 3000 nM.
“H-HSDAVFTDNYTRLRAQMAVKKYLNSILN-NH2 [VIP Ala15]” was tested, and the Ki [1] was 1.9 nM and 16.6 nM and the Ki [2] was 19.1 nM and 40.7 nM and 38.4 nM.
For `CCCC[C@H](NC(=O)[C@H](CCC(N)=O)NC(=O)[C@H](CCCCN)NC(=O)[C@H](CCCNC(=N)N)NC(=O)[C@H](CC(C)C)NC(=O)[C@H](CCCCN)NC(=O)[C@@H](NC(=O)[C@H](Cc1ccc(O)cc1)NC(=O)[C@H](CC(N)=O)NC(=O)[C@H](CCC(=O)O)NC(=O)[C@@H](NC(=O)[C@H](Cc1ccccc1)NC(=O)[C@@H](NC(=O)[C@H](C)NC(=O)[C@H](CC(=O)O)NC(=O)[C@H](CO)NC(=O)[C@H](Cc1c[nH]cn1)NC(C)=O)C(C)C)[C@@H](C)O)[C@@H](C)O)C(=O)N[C@@H](C)C(=O)N[C@@H](C)C(=O)N[C@@H](CCCCN)C(=O)N[C@H]1CCCCNC(=O)C[C@@H](C(=O)N[C@@H](CC(C)C)C(=O)N[C@@H](CCCCN)C(=O)N[C@@H](CCCCN)C(=O)NCC(=O)NCC(=O)N[C@H](C(N)=O)[C@@H](C)O)NC(=O)[C@H](CC(N)=O)NC(=O)[C@H](CC(C)C)NC(=O)[C@H](Cc2ccc(O)cc2)NC1=O` [Ac-L-His-L-Ser-L-Asp-L-Ala-L-Val-L-Phe-L-Thr-L-Glu-L-Asn-L-Tyr-L-Thr-L-Lys-L-Leu-L-Arg-L-Lys-L-Gln-L-Nle-L-Ala-L-Ala-L-Lys-L-Lys(1)-L-Tyr-L-Leu-L-Asn-L-Asp(1)-L-Leu-L-Lys-L-Lys-Gly-Gly-L-Thr-NH2] (Ac-HSDAVFTENYTKLRKQ[Nle]AAKKYLNDLKKGGT-NH2; lactam 21-25), the Ki [3] was 1200 nM and 1020 nM and the Ki [2] was 2.1 nM and 15.9 nM and 3.9 nM.
“H-HSDAVFTDNYTRLAKQMAVKKYLNSILN-NH2 [VIP Ala14]” was tested, and the Ki [2] was 47.9 nM and 110 nM and 166 nM.
In the case of “H-HSDAVFTDNATRLRKQMAVKKYLNSILN-NH2 [VIP Ala10]”, the Ki [1] is reported as 724 nM and 2660 nM and the Ki [2] is reported as 3000 nM.
With “H-HSDAVFTDNYTRLRKQMAVKAYLNSILN-NH2 [VIP Ala21]” the Ki [1] was 1.3 nM and 12.4 nM and the Ki [2] was 8.1 nM and 17 nM and 12.6 nM.
“H-HSDAVFTDNYTRLRKQMAVKKYLASILN-NH2 [VIP Ala24]” was tested, and the Ki [1] was 0.4 nM and 3.2 nM and the Ki [2] was 4.1 nM and 14.1 nM and 18.6 nM.
In the case of “H-HSDAVFTDNYTRLRKQMAVKKYLNSILA-NH2 [VIP Ala28]”, the Ki [2] is reported as 34.7 nM and 21 nM and 27.2 nM.
“H-HADAVFTDNYTRLRKQMAVKKYLNSILN-NH2 [VIP Ala2]” was tested, and the Ki [2] was 3.4 nM and 3.5 nM and 2.1 nM.
With “H-HSDAVFTDNYTRLRKQMAVAKYLNSILN-NH2 [VIP Ala20]” the Ki [2] was 10 nM and 12.6 nM and 21.9 nM.
`CC[C@H](C)[C@H](NC(=O)[C@H](CO)NC(=O)[C@H](CC(N)=O)NC(=O)[C@H](CC(C)C)NC(=O)[C@H](Cc1ccc(O)cc1)NC(=O)[C@H](CCCCN)NC(=O)[C@H](CCCCN)NC(=O)[C@@H](NC(=O)[C@H](C)NC(=O)[C@H](CCSC)NC(=O)[C@H](CCC(N)=O)NC(=O)[C@H](CCCCN)NC(=O)[C@H](CCCN=C(N)N)NC(=O)[C@H](CC(C)C)NC(=O)[C@H](CCCN=C(N)N)NC(=O)[C@@H](NC(=O)[C@H](Cc1ccc(O)cc1)NC(=O)[C@H](CC(N)=O)NC(=O)[C@H](CC(=O)O)NC(=O)[C@H](C)NC(=O)[C@H](Cc1ccccc1)NC(=O)[C@@H](NC(=O)[C@H](C)NC(=O)[C@H](CC(=O)O)NC(=O)[C@H](CO)NC(=O)[C@@H](N)Cc1cnc[nH]1)C(C)C)[C@@H](C)O)C(C)C)C(=O)N[C@@H](CC(C)C)C(=O)N[C@@H](CC(N)=O)C(N)=O` [VIP Ala7] was tested, and the Ki [1] was 138 nM and 631 nM and the Ki [2] was 1700 nM and 1120 nM and 3000 nM.
“H-HSDAVFTNSYRKVLKRLSARKLLQDIL-NH2 [NSC_0]” was tested, and the Ki [3] was 1.7 nM and 7.7 nM and 8.9 nM and the Ki [2] was 3000 nM.
In the case of “H-HSDAVFTDNYTRLRKQMAVKKYANSILN-NH2 [VIP Ala23]”, the Ki [1] is reported as 110 nM and 972 nM and the Ki [2] is reported as 1700 nM and 2820 nM and 2710 nM.
For “H-HSDAVFTDAYTRLRKQMAVKKYLNSILN-NH2 [VIP Ala9]”, the Ki [2] was 4.3 nM and 3.2 nM and 6 nM.
“H-HSDAVFTDNYTRLRKQMAVKKYLNSIAN-NH2 [VIP Ala27]” was tested, and the Ki [2] was 19.5 nM and 79.4 nM and 89.1 nM.
In the case of “H-HSDAVFTDNYTRLRKQAAVKKYLNSILN-NH2 [VIP Ala17]”, the Ki [1] is reported as 2.3 nM and 5 nM.
With “H-HSDAAFTDNYTRLRKQMAVKKYLNSILN-NH2 [VIP Ala5]” the Ki [1] was 13.2 nM and 23 nM and the Ki [2] was 12.2 nM and 48.1 nM and 120 nM.
In the case of “H-HSDAVFTDNYTRARKQMAVKKYLNSILN-NH2 [VIP Ala13]”, the Ki [2] is reported as 48.9 nM and 81.3 nM and 52.3 nM.
“H-HSDAVFTANYTRLRKQMAVKKYLNSILN-NH2 [VIP Ala8]” was tested, and the Ki [2] was 4.4 nM and 2.7 nM and 13.3 nM.
With “H-HSDAVFTDNYTRLRKQMAVKKYLNSALN-NH2 [VIP Ala26]” the Ki [2] was 9.1 nM and 11.8 nM and 15.2 nM and 50.1 nM and 49 nM and 27.9 nM.
“H-ASDAVFTDNYTRLRKQMAVKKYLNSILN-NH2 [VIP Ala1]” was tested, and the Ki [1] was 75.7 nM and 479 nM and the Ki [2] was 209 nM and 251 nM and 559 nM.
With “H-HSDAVFTDNYTRLRKQMAAKKYLNSILN-NH2 [VIP Ala19]” the Ki [1] was 0.43 nM and 3.4 nM and the Ki [2] was 2.4 nM and 2.6 nM and 5 nM.
With “H-HSAAVFTDNYTRLRKQMAVKKYLNSILN-NH2 [VIP Ala3]” the Ki [1] was 138 nM and 546 nM and the Ki [2] was 977 nM and 1150 nM and 2420 nM.

Source: BindingDB's records for doi:10.1124/jpet.102.038075 (Nih, 2002)
